For one series, the target named is T1, NURR-1/RXRα (Homo sapiens, UniProt P19793).
T1 construct: expressed in transfected cells; host or cells: Cos-7 cells
In words: Transactivation test, NURR-1-Gal4/RXRα, luciferase reporter in Cos-7 cells. Format: cell-based.

Series [1] is described as follows: Plasma pharmacokinetics in mice after oral administration. The format is in vivo. Particulars: mouse, male C57/Bl6 mice, oral 10 mg/kg. The essentials: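 Male C57/B16 mice (25-30 g, fed, 9 per dose) received 10 mg/kg by oral gavage as a suspension in 1% methylcellulose 400 cps/0.1% Poloxamer 188/water. Plasma was sampled at 15 min, 30 min, 1 h, 3 h and 7 h and quantified by LC-MS/MS after protein precipitation. Parameters were derived non-compartmentally, with AUC by the log-linear trapezoidal method.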

The target of a further series is T2, NURR-1/RXRγ (Homo sapiens, UniProt P48443).
T2 construct: expressed in transfected cells; host or cells: Cos-7 cells
T2 sequence (P48443 whole entry): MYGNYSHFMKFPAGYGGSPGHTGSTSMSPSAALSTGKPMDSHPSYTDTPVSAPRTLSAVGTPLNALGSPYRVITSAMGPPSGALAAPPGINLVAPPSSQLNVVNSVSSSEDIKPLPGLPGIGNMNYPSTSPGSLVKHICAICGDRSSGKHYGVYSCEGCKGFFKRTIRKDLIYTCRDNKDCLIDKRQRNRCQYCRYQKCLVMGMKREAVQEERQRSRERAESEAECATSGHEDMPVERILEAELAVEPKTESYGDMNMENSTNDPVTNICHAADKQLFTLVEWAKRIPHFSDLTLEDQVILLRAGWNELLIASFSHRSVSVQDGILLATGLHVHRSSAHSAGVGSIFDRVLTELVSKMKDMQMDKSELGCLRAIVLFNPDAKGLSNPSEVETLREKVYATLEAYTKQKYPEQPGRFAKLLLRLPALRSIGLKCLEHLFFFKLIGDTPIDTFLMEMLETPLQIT
T2 sequence (P43354 whole entry partner): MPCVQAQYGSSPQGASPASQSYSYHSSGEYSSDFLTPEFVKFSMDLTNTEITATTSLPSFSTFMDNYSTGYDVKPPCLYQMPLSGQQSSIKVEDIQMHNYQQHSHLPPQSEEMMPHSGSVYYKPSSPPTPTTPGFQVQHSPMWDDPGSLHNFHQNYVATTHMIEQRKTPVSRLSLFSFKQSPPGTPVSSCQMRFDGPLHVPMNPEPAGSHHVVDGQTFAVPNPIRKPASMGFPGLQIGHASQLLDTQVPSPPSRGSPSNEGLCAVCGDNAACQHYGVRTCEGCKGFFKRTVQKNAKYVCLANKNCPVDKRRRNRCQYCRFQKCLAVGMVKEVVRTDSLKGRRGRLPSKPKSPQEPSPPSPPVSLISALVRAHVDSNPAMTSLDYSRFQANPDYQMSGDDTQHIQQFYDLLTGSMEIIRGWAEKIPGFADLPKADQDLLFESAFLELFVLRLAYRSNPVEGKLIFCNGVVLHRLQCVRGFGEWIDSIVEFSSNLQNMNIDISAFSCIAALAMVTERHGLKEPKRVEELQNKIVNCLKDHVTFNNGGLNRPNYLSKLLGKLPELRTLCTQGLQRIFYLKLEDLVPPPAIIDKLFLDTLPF
T2 sequence (P04386 1-147 partner limits assumed): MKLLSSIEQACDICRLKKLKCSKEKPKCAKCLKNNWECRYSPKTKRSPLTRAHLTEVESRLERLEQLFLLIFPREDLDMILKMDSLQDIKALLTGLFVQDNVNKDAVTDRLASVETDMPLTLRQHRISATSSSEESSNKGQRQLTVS
The series can be described thus: Transactivation test, NURR-1-Gal4/RXRγ, luciferase reporter in Cos-7 cells. The format is cell-based.

Series [2] can be described thus: Brain penetration in rats after intravenous administration. The format is in vivo. To be noted: rat. The essentials: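 Male Wistar rats (250-300 g, fed, n=4) received test compound by 4-hour jugular vein infusion at 4 mg/kg in 2% Cremophor EL/0.9% NaCl. At the end of infusion, plasma and brain homogenate were analysed by LC-MS/MS; Kp is the brain-to-plasma concentration ratio after 4 hours.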

In series [3] the test system is dopaminergic neurons of primary culture of rat embryo mesencephalon treated with MPP+. The series can be described thus: Neuroprotection in primary culture of rat embryo mesencephalon treated with MPP+ (count of tyrosine hydroxylase expressing cells). Format: cell-based. Particulars: recombinant human BDNF 10 ng/mL = 100%, 2 days with MPP+. Summed up:
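Rat embryo (E15) mesencephalon cultures, 5 days, then MPP+ with or without compound on day 6 for 2 days. Tyrosine hydroxylase-immunolabelled cells counted by image analysis; activity expressed as percent of recombinant human BDNF (10 ng/mL) reference, set at 100%.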

Molecules are shown by their SMILES.

T1 sequence (P19793 whole entry): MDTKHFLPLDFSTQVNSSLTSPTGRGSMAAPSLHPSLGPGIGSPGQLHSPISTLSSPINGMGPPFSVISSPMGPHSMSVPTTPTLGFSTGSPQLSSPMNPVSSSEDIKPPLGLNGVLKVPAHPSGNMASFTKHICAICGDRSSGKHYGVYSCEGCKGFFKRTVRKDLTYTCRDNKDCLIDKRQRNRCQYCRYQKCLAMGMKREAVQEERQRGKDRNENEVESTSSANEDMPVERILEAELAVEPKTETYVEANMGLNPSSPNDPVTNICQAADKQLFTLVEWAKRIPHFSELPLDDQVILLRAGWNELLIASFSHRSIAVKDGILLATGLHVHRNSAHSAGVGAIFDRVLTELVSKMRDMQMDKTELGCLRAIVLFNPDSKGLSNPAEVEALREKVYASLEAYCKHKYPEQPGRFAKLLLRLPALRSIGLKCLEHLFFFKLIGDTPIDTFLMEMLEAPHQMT
T1 sequence (P43354 whole entry partner): as the sequence (P43354 whole entry partner) above
T1 sequence (P04386 1-147 partner limits assumed): as the sequence (P04386 1-147 partner limits assumed) above

On to `O=C(O)C1CN(c2cccc(N3c4ccc(C(F)(F)F)cc4CC3Cc3ccccc3)c2)C1` (stereo not shown) [Example 147, 1-[3-[2-benzyl-5-(trifluoromethyl)indolin-1-yl]phenyl]azetidine-3 carboxylic acid], for which the Emax on NURR-1/RXRα (COS-7, induction level relative to reference XCT0135908 at 2×10^−5 M (=100%), read-out: hNurr1_RXRaFL Emax (%)) was 68%; on NURR-1/RXRγ (COS-7, induction level relative to reference XCT0135908 at 2×10^−5 M (=100%), read-out: hNurr1_RXRgFL Emax (%)), 50%. The EC50 was found to be 44 nM at NURR-1/RXRα (Cos-7 cells, NURR-1-Gal4/RXRα, luciferase reporter, read-out: hNurr1_RXRaFL EC50) and 87 nM on NURR-1/RXRγ (Cos-7 cells, NURR-1-Gal4/RXRγ, luciferase reporter, read-out: hNurr1_RXRgFL EC50). Also, in series [1] (sampling 15 min to 7 h, log-linear trapezoidal method, read-out: AUCplasma), the AUC came out at 143 µg·h/mL. For the same molecule, the highest level in series [1] (suspension in 1% methylcellulose/0.1% Poloxamer 188) (Cmax) was 33000 ng/mL. Moreover, the Kp at 4 h in series [2] (male, Wistar, intravenous, 4 mg/kg, ratio of Cmax brain to Cmax plasma after the 4 hours of infusion, rats, read-out: Kp (partition coefficient between the brain and the plasma)) was found to be 0.12. This molecule yielded a Cmax at 4 h in series [2] (male Wistar rats, 4 mg/kg iv infusion into the jugular vein for 4 hours, plasma at end of infusion) of 7910 ng/mL. Further, the “percentage of activity relative to the BDNF reference” value was 53% in series [3] (compound 1 μM) and 104% in series [3] (compound 10 μM).

(Values after patent US20170066717A1, “NEW PHENYLAZETIDINECARBOXYLATE OR -CARBOXAMIDE COMPOUNDS” (INVENTIVA, priority 2014, published 2017).)
